# Data from publication PMC5414049 (Science (New York, N.Y.), 2016).
# Assays:
# Type in all cases: biochemical
# [1] = target: ornithine transcarbamylase (Arg3) (Saccharomyces cerevisiae, UniProt P05150)
# pyruvate kinase (Cdc19) = target: T1, pyruvate kinase (Cdc19) (Saccharomyces cerevisiae, UniProt P00549)
# T1 sequence (P00549 2-500): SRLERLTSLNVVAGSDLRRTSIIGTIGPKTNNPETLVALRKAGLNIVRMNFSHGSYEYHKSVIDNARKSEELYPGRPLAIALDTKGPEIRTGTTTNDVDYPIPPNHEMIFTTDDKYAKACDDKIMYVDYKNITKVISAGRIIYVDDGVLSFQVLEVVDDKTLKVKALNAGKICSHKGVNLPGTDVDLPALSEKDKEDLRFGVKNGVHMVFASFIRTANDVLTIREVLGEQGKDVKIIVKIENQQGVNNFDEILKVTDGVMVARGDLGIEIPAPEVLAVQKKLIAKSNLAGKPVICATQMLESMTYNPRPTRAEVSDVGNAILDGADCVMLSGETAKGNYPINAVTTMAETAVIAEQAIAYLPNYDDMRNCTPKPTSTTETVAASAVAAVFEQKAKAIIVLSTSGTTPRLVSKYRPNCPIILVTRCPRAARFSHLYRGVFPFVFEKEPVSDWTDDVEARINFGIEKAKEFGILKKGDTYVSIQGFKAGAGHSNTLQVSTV
# [2] = target: T2, pyruvate decarboxylase (Pdc1) (Saccharomyces cerevisiae, UniProt P06169); assay: ADH/NADH-coupled spectrophotometric assay, 1H-NMR confirmation
# T2 sequence (P06169 2-563): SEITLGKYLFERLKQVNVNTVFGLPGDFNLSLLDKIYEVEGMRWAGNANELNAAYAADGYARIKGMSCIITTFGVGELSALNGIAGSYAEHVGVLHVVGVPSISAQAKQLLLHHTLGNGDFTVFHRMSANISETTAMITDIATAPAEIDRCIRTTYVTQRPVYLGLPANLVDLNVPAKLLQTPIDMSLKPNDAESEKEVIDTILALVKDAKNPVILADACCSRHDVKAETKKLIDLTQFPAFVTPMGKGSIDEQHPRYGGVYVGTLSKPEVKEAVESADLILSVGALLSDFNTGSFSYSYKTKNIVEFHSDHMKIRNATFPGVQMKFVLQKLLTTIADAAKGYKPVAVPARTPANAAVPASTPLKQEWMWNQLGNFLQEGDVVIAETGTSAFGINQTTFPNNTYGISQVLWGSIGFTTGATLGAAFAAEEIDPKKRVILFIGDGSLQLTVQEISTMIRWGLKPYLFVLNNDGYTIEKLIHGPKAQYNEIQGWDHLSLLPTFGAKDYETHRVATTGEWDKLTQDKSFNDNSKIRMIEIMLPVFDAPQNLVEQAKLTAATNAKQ
# Chain of ornithine transcarbamylase (Arg3) (P05150 2-338): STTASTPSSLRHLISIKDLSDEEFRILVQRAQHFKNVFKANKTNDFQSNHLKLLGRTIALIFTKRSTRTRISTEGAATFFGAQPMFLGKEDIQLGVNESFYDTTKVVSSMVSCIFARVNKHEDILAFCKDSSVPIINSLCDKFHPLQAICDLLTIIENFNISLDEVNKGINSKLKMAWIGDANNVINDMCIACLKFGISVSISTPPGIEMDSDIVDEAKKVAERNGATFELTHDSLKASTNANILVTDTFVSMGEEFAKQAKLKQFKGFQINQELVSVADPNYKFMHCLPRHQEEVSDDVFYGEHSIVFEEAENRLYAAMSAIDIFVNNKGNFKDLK
compound,measurement,setting,value
C[C@H](N)C(=O)O [alanine],Ki,[1],15 mM
O=C(O)CC(O)(CC(=O)O)C(=O)O [citrate],Ki,pyruvate kinase (Cdc19),~5 mM
O=C(O)C(=O)Cc1ccccc1 [phenylpyruvate],Ki,[2],1 to 4 mM
